In brackets after ≈: the same amount, converted by molar mass. Where two headings read alike, the source gives them in different places. One block for each molecule: values may come before it.
Assays:
[1] = molecular target: T1, gastrin receptor sites on the parietal cell membranes of the fundic mucosa of a guinea-pig stomach (Cavia porcellus, UniProt H0VZC5); experiment: Inhibition of binding of tritiated pentagastrin to isolated guinea-pig gastric glands; parameters: from tissue; host or cells: isolated gastric glands from guinea-pig fundic mucosa (collagenase digestion)
T1 sequence (H0VZC5 1-426): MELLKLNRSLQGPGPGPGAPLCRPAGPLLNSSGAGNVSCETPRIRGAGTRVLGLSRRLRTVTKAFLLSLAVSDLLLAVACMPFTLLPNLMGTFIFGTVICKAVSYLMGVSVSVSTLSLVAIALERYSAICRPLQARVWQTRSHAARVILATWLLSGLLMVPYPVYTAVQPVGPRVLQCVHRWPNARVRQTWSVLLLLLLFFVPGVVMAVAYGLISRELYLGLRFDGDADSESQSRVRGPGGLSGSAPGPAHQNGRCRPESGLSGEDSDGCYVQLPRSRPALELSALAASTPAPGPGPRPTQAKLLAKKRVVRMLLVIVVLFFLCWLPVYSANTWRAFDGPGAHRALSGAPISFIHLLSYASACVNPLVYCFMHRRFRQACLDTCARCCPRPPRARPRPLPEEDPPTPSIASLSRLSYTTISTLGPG
Protocol: The capacity of some of the compounds which are the subject of the invention to inhibit the binding of pentagastrin-[beta-alanyl-3-3H(N)] to the gastrin receptor sites on the parietal cell membranes of the fundic mucosa of a guinea-pig stomach was evaluated by comparison with the displacement of pentagastrin induced by proglumide, which is a reference antigastrin compound, by lorglumide, which is a powerful CCK antagonist mentioned above, and by the compound D5 which is the optical antipode (the L-series enantiomer) of the compound D1.
Male guinea pigs weighing about 400-500g were used. After the guinea pig had been killed, its stomach was removed and placed in oxygenated SPB buffer at 37°C (SPB = saline phosphate buffer: 149.6 mM NaCl, 3 mM K₂HPO₄, 0.64 mM NaH₂PO₄, pH 7.3).
After washing in the buffer, the stomach was placed on a petri dish and the antral part discarded.
The mucosa of the remaining part was removed from the underlying muscular part and was then chopped and transferred to a flask containing a collagenase digestion solution, 0.1% BSA and 0.2% glucose. The solution was incubated at 37°C for 10 minutes under agitation and a stream of 0₂.
During the incubation period, the tissue was passed several times through a series of pipettes with decreasing diameters in order to facilitate its digestion. At the end of the period, the tissue was removed and centrifuged at 1000 rpm. The supernatant liquid resulting from the centrifuging was discarded and the pellet washed several times with a washing buffer containing EPTA to remove the collagenase.
The glands were then isolated from the undigested tissue by conventional techniques, suspended in Hepes buffer for binding and incubated together with a radioactive tracer and the compounds under test for 30 minutes at 25°C.
After the supernatant liquid had been removed by centrifuging, the radioactivity associated with the pellet was determined with a liquid scintillator. The specific binding was determined as the difference between the binding in the absence and in the presence of 10⁻⁶ M pentagastrin.
The results obtained are shown in Table 1 which gives the IC50, that is, the concentration (in moles/litre) of the antagonist which can displace 50% of the pentagastrin tritiate from the receptor.

[2] = test system: gastric acid secretion induced by pentagastrin; experiment: Antisecretive activity in anaesthetised rats, stimulant pentagastrin; type: in vivo; conditions: Rattus norvegicus, iv; pentagastrin 30 mcg/kg/h; I.V. bolus; anaesthetised rats; read-out: Antagonistic activity (ED50 mg/kg IV) towards gastric acid secretion induced by pentagastrin
Protocol: The antisecretive activity was determined in rats with the use of male animals weighing about 200g, anaesthetised with urethane. Gastric secretion was stimulated with pentagastrin. K.S. Lai's method (Gut 5, (1964), 327-341) was used, with slight modifications.
After tracheotomy, oesophageal and duodenal cannulae were inserted. A tepid solution (37°C) of 0.25 mM NaOH was perfused through the stomach by means of a peristaltic pump at a constant flow rate of 1 ml/minute. After stabilisation for 20 minutes, the dose of the stimulant, indicated in Table 3, dissolved in a physiological solution, was perfused for 120 minutes at a rate of 0.95 ml/hour. After 60 minutes of perfusion (basic stimulation), the products under test were administered intravenously (I.V.) in boli whilst the perfusion of the stimulant continued for a further 60 minutes. The acid secretion was recorded continuously as a function of time.
The activity of the product was evaluated as the reduction in the secreted acidity after administration of the product as a percentage of the basic acidity measured during the first 60 minutes of collection during which only pentagastrin was present.
The antagonistic compounds tested were administered in different doses so that an ID50 (that is the dose (in mg/Kg I.V.) which can inhibit the effect of the pentagastrin by 50% could be calculated.
The results thus obtained are given in the following table in which the activities of the compounds are expressed as ID50s under the stimulus of pentagastrin at 30 mcg/Kg/h.

[3] = test system: guinea-pig gall bladders stimulated in vitro by CCK-8; experiment: Anti-CCK activity on guinea-pig gall bladder contracted in vitro by CCK-8; conditions: for IC50 ACTIVITY: CCK-8 10 ng/ml, at least three tests per compound
Protocol: In order to check the hypothesis that the molecular conformation of the subject compounds is suitable to give them a specific antagonistic activity towards gastrin and not towards CCK, the anticontracturant activity of some of the compounds of the invention was tested on guinea-pig gall bladders stimulated in vitro by CCK-8.
A longitudinal strip of guinea-pig gall bladder was placed in a bath for isolated organs in the presence of Krebs at a temperature of 32°C, continuously oxygenated by an oxygen-CO₂ mixture (95-5 V/V).
The isometric contractions were detected by means of a force transducer and recorded.
The gall bladder was contracted with the use of a 10ng/ml concentration of CCK-8; the antagonistic activity of the compounds towards the contracturant effect of the CCK was determined with the use of different concentrations and the IC50 value, that is, the concentration in mcg/ml of the compound which is able to antagonise the contracturant effect of the CCK by 50%, thus determined.
The results obtained are set out in the table below which gives the compounds tested and the IC50s which were calculated by the regression method on a set of at least three tests for each compound investigated.

[4] = molecular target: T2, central gastrin receptors (Mus musculus, UniProt P56481); experiment: Inhibition of binding of tritiated pentagastrin to mouse cerebral cortex membranes; parameters: Mouse cortex tissue was homogenised cold in 20 volumes of tris buffer (pH 7.7); from tissue; host or cells: mouse cerebral cortex membranes; species or system mice; conditions: displacement of pentagastrin tritiate; 40 minutes at 37°C
T2 sequence (P56481 1-453): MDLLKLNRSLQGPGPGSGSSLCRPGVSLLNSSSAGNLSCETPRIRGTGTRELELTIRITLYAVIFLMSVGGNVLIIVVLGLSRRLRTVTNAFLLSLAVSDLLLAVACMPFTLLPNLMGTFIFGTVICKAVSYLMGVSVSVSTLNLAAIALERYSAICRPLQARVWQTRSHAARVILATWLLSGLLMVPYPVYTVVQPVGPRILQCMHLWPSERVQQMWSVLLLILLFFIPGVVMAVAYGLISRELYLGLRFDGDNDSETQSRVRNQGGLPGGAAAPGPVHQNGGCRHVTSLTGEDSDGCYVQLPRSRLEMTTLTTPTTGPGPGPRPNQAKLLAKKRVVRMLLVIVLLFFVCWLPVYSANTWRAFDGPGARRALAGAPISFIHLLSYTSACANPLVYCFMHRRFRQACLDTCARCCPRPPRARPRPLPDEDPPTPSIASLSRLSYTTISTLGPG
Protocol: Cerebral cortex membranes were therefore used and pentagastrin tritiate was again used as the ligand.
Mouse cortex tissue was homogenised cold in 20 volumes of tris buffer (pH 7.7). After washing and centrifuging, the final pellet was resuspended in 20 volumes of binding buffer containing, inter alia, TRIS, BSA and bacitracin. 0.4 ml of the membrane thus obtained were then incubated with a radioactive tracer and with the compounds under test for 40 minutes at 37°C.
After the supernatant liquid had been removed by centrifuging, the radioactivity associated with the pellet was determined, again with a liquid scintillator. The specific binding is the difference between the binding in the absence and in the presence of 10⁻⁶M pentagastrin.
Again, this gives the IC50s of the compounds tested with the meaning as given above.

[5] = displacement of 50% of pentagastrin tritiate, 30 minutes at 25°C, read-out: IC50

Compound: CCCCCNC(=O)C(CCC(=O)O)NC(=O)c1cccc(Cl)c1 (racemic) [A1]
IC50 [1, 5]: 2000 nM | ED50 [2]: 56 mg/kg | IC50 ACTIVITY [3]: > 100 µg/mL | IC50 [4]: 6700 nM

Compound: CC(C)CCNC(=O)C(CCC(=O)O)NC(=O)c1cccc(Cl)c1 (racemic) [A2]
IC50 [1, 5]: 3100 nM | ED50 [2]: 48 mg/kg

Compound: CCCCCCNC(=O)C(CCC(=O)O)NC(=O)c1cccc(Cl)c1 (racemic) [A3]
IC50 [1, 5]: 4800 nM | ED50 [2]: 54 mg/kg | IC50 [4]: 7500 nM

Compound: CC(C)CCCNC(=O)C(CCC(=O)O)NC(=O)c1cccc(Cl)c1 (racemic) [A4]
IC50 [1, 5]: 3300 nM | ED50 [2]: 61 mg/kg

Compound: O=C(O)CCC(NC(=O)c1cccc(Cl)c1)C(=O)NC1CCCCC1 (racemic) [A7]
IC50 [1, 5]: 17000 nM | ED50 [2]: 93 mg/kg | IC50 ACTIVITY [3]: > 100 µg/mL

Compound: CCCCCCCNC(=O)C(CCC(=O)O)NC(=O)c1cccc(Cl)c1 (racemic) [A8]
IC50 [1, 5]: 12000 nM | ED50 [2]: > 100 mg/kg | IC50 [4]: 39000 nM

Compound: CC(C)(C)CCCNC(=O)C(CCC(=O)O)NC(=O)c1cccc(Cl)c1 (racemic) [A9]
IC50 [1, 5]: 200 nM | ED50 [2]: 34 mg/kg | IC50 [4]: 220 nM

Compound: CCC(C)(C)CCNC(=O)C(CCC(=O)O)NC(=O)c1cccc(Cl)c1 (racemic) [A10]
IC50 [1, 5]: 230 nM | ED50 [2]: 37 mg/kg | IC50 [4]: 180 nM

Compound: CCC(CC)CCNC(=O)C(CCC(=O)O)NC(=O)c1cccc(Cl)c1 (racemic) [A11]
IC50 [1, 5]: 650 nM | ED50 [2]: 53 mg/kg

Compound: O=C(O)CCC(NC(=O)c1cccc(Cl)c1)C(=O)NC1CCCCCC1 (racemic) [A12]
IC50 [1, 5]: 3800 nM | ED50 [2]: 58 mg/kg | IC50 [4]: 6400 nM

Compound: CCC(C)(CC)CCNC(=O)C(CCC(=O)O)NC(=O)c1cccc(Cl)c1 (racemic) [A13]
IC50 [1]: 91 nM | ED50 [2]: 33 mg/kg | IC50 ACTIVITY [3]: 32 µg/mL (≈ 80.6 µM) | concentration relative to that of lorglumide ([3]; times greater than lorglumide): about 500 times | IC50 [4]: 92 nM

Compound: CCC(CC)(CC)CCNC(=O)C(CCC(=O)O)NC(=O)c1cccc(Cl)c1 (racemic) [A14]
IC50 [1, 5]: 78 nM | ED50 [2]: 39 mg/kg | IC50 [4]: 93 nM

Compound: CCCCCNC(=O)C(CCC(=O)O)NC(=O)c1cccc(C)c1 (racemic) [A17]
IC50 [1, 5]: 4500 nM | ED50 [2]: 65 mg/kg | IC50 [4]: 17000 nM

Compound: CCCCCCNC(=O)C(CCC(=O)O)NC(=O)c1cccc(C)c1 (racemic) [A18]
IC50 [1, 5]: 5800 nM | ED50 [2]: 58 mg/kg

Compound: Cc1cccc(C(=O)NC(CCC(=O)O)C(=O)NC2CCCCC2)c1 (racemic) [A19]
IC50 [1, 5]: 41000 nM | ED50 [2]: 98 mg/kg

Compound: CC(C)(C)CCNC(=O)C(CCC(=O)O)NC(=O)c1cc(Cl)cc(Cl)c1 (racemic) [A21]
IC50 [1]: 69 nM | ED50 [2]: 34 mg/kg | IC50 [4]: 80 nM

Compound: CCC(C)(CC)CCNC(=O)C(CCC(=O)O)NC(=O)c1cc(C)cc(C)c1 (racemic) [A22]
IC50 [1, 5]: 2900 nM | ED50 [2]: 41 mg/kg | IC50 [4]: 2400 nM

Compound: CCC(C)(CC)CCNC(=O)C(CCC(=O)O)NC(=O)c1cc(Cl)ccc1[N+](=O)[O-] (racemic) [A23]
IC50 [1, 5]: 66 nM | ED50 [2]: 40 mg/kg | IC50 [4]: 230 nM

Compound: CCC(C)(CC)CCNC(=O)C(CC(=O)O)NC(=O)c1cccc(Cl)c1 (racemic) [A24]
IC50 [1, 5]: 230 nM | ED50 [2]: 42 mg/kg | IC50 [4]: 290 nM

Compound: O=C(O)CC(NC(=O)c1cccc(Cl)c1)C(=O)NC1CCCCCC1 (racemic) [A25]
IC50 [1, 5]: 7300 nM | ED50 [2]: 74 mg/kg

Compound: CCC(C)(CC)CCNC(=O)C(CC(=O)O)NC(=O)c1cccc(C)c1 (racemic) [A26]
IC50 [1, 5]: 840 nM | ED50 [2]: 52 mg/kg

Compound: CCC(C)CCNC(=O)C(CCC(=O)O)NC(=O)c1cccc(Cl)c1 (centres unmarked) [A6]
IC50 [1, 5]: 4500 nM | ED50 [2]: 55 mg/kg

Compound: CCC(C)(CCNC(=O)C(CCC(=O)O)NC(=O)c1cccc(Cl)c1)C(C)C (centres unmarked) [A16]
IC50 [1, 5]: 290 nM | ED50 [2]: 37 mg/kg

Compound: CC(C)(C)CCCNC(=O)[C@@H](CCC(=O)O)NC(=O)c1cccc(Cl)c1 [D2]
IC50 [1, 5]: 34 nM | ED50 [2]: 34 mg/kg | IC50 [4]: 59 nM

Compound: CCC(C)(CC)CCNC(=O)[C@@H](CCC(=O)O)NC(=O)c1cccc(Cl)c1 [D3]
IC50 [1, 5]: 58 nM | ED50 [2]: 30 mg/kg

Compound: O=C(O)CC[C@@H](NC(=O)c1cccc(Cl)c1)C(=O)NC1CCCCCC1 [D4]
IC50 [1, 5]: 2300 nM | ED50 [2]: 64 mg/kg

Compound: CC(C)(C)CCNC(=O)[C@H](CCC(=O)O)NC(=O)c1cccc(Cl)c1 [D5, reference compound]
times less active than the corresponding compound D1 ([1]; L-series vs D-series enantiomer, gastric glands): about 10 times | IC50 [1, 5]: 520 nM | ED50 [2]: 89 mg/kg | IC50 [4]: 660 nM

Compound: O=C(O)CC[C@H](NC(=O)c1cccc(Cl)c1)C(=O)NC1CCCCCC1 [D6, reference compound]
IC50 [1, 5]: 67000 nM

IC50 [4]: 220000 nM
Compound: CCCN(CCC)C(=O)C(CCC(=O)O)NC(=O)c1ccccc1 (centres unmarked) [Proglumide, reference compound]
ED50 [2]: 500 mg/kg
